Literature values in patent WO2013169007A1, “Sustained-release complex preparations for treating diabetes with improved drug compliance and method for preparing same” (priority 2012, dated 2013).

- drug half-life (continuous administration): about 9 hours
- absorption by the gastrointestinal tract (in vivo, po): almost completely absorbed
SMILES: CCC1=C(C)CN(C(=O)NCCc2ccc(S(=O)(=O)NC(=O)N[C@H]3CC[C@H](C)CC3)cc2)C1=O [glimepiride]
